From patent US12704493B2 (priority 2020, dated 2026)

Assays:
[1] = system: electroactive microorganisms
[2] = system: electroactive microorganisms of the biosensor anode

SMILES	change of open circuit voltage with each spike [1]	decrease in the estimated open circuit voltage [2] [%]
O=S(=O)([O-])[O-].[Cu+2] [Cu, CuSO4]	reduced	–
C=O [formaldehyde]	–	~90
